Among the data in US10160755B2 (Plexxikon Inc., priority 2015, dated 2018) are IC50 values, retold here.

Structures are written as SMILES.

In this assay the target is T1, FLT3-ITD (Homo sapiens, UniProt P36888).
T1 construct: FLT3-ITD; Invitrogen #PV6190
T1 sequence (P36888 1-993): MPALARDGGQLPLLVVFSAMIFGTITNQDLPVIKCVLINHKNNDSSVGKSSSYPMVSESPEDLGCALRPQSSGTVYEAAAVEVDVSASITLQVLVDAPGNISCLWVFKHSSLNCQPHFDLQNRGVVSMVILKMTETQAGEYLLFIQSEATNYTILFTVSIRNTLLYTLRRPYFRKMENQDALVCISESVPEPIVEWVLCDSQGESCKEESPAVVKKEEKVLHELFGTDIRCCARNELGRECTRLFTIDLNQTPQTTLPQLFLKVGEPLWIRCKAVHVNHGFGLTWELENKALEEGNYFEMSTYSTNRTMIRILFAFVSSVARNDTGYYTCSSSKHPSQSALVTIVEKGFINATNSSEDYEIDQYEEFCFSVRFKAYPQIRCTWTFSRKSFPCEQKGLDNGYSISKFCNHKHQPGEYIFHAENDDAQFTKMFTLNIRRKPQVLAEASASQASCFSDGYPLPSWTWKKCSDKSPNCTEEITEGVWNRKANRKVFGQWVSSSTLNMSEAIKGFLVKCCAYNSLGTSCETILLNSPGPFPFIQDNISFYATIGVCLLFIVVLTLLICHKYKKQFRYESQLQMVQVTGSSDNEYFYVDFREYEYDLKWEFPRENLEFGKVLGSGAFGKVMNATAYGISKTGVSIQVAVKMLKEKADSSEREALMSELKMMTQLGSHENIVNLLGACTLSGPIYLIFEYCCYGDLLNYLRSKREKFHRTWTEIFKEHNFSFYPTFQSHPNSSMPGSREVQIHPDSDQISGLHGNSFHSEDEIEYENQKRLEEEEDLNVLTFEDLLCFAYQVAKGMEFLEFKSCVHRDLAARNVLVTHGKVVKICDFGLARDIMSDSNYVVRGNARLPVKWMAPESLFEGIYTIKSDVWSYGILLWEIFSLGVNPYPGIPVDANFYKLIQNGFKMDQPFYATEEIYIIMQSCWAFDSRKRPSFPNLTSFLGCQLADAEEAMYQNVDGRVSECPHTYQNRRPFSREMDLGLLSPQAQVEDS
The experiment in a line: FLT3-ITD biochemical kinase assay (AlphaScreen). The method in brief: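 Recombinant enzyme phosphorylated biotin-poly(Glu4-Tyr) peptide (30 nM final); ATP final 10 μM for FLT3-D835Y, 100 μM for FLT3-ITD. AlphaScreen read-out: streptavidin donor and anti-phosphotyrosine (PY20) acceptor beads, 20 and 60 min at room temperature; inhibition seen as drop in 580 nm proximity signal; IC50 determined.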

In turn, `CC(C)(C)n1cnc2ccc(-c3c[nH]c4ncc(-c5cccc(N6CCOCC6)c5)nc34)cc21` [P-226, 4-[3-[7-(3-tert-butylbenzimidazol-5-yl)-5H-pyrrolo[2,3-b]pyrazin-2-yl]phenyl]morpholine] registered a 50% inhibitory concentration (IC50) of 0.0001 to 1 µM.

Consider `O=S1(=O)CCCCN1c1cccc(-c2cnc3[nH]cc(-c4ccc5ncn(C6CCCNC6)c5c4)c3n2)c1` (centres unmarked) [P-253, 2-[3-[7-[3-(3-piperidyl)benzimidazol-5-yl]-5H-pyrrolo[2,3-b]pyrazin-2-yl]phenyl]thiazinane 1,1-dioxide], for which the IC50 lay in the range of 0.0001 to 1 µM.

On to `FC(F)(F)Cn1cc(-c2cnc3[nH]cc(-c4ccc5ncn(C6CCCNC6)c5c4)c3n2)cn1` (centres unmarked) [P-258, 7-[3-(3-piperidyl)benzimidazol-5-yl]-2-[1-(2,2,2-trifluoroethyl)pyrazol-4-yl]-5H-pyrrolo[2,3-b]pyrazine], for which the IC50 was in the range of 0.0001 to 1 µM.

Consider `COc1cc(-c2cnc3[nH]nc(-c4ccc5ncn(C(C)(C)C)c5c4)c3c2)ccn1` [P-272, 3-(1-(tert-butyl)-1H-benzo[d]imidazol-6-yl)-5-(2-methoxypyridin-4-yl)-1H-pyrazolo[3,4-b]pyridine], for which the IC50 lay within 0.0001 to 1 µM.

In turn, `FC(F)n1cc(-c2cnc3[nH]cc(-c4ccc5ncn(C6CCCNC6)c5c4)c3n2)cn1` (centres unmarked) [P-257, 2-[1-(difluoromethyl)pyrazol-4-yl]-7-[3-(3-piperidyl)benzimidazol-5-yl]-5H-pyrrolo[2,3-b]pyrazine] yielded a half-inhibitory concentration (IC50) of 0.0001 to 1 µM.

With `COc1cc(-c2cnc3[nH]cc(-c4ccc5ncn(C(C)(C)CO)c5c4)c3n2)ccn1` [P-186, 2-[6-[2-(2-methoxy-4-pyridyl)-5H-pyrrolo[2,3-b]pyrazin-7-yl]benzimidazol-1-yl]-2-methyl-propan-1-ol], the half-inhibitory concentration (IC50) fell in the range of 0.0001 to 1 µM.

In turn, `C#Cc1cnc2[nH]cc(-c3ccc4ncn(C5CCCNC5)c4c3)c2n1` (centres unmarked) [P-270, 2-ethynyl-7-[3-(3-piperidyl)benzimidazol-5-yl]-5H-pyrrolo[2,3-b]pyrazine] gave a half-inhibitory concentration (IC50) of 0.0001 to 1 µM.

In the case of `CC(C)(C)n1cnc2ccc(-c3c[nH]c4ncc(-c5cnc(N6CCOCC6)nc5)cc34)cc21` [P-266, 4-[5-[3-(3-tert-butylbenzimidazol-5-yl)-1H-pyrrolo[2,3-b]pyridin-5-yl]pyrimidin-2-yl]morpholine], the half-maximal inhibitory concentration (IC50) was 0.0001 to 1 µM.

Compound `COc1cc(-c2cnc3[nH]cc(-c4ccc5ncn(C6CCCN(C)C6)c5c4)c3n2)ccn1` (centres unmarked) [P-271, 2-(2-methoxy-4-pyridyl)-7-[3-(1-methyl-3-piperidyl)benzimidazol-5-yl]-5H-pyrrolo[2,3-b]pyrazine] yielded a 50% inhibitory concentration (IC50) of 0.0001 to 1 µM.

The compound `COc1cc(C#Cc2cnc3[nH]cc(-c4ccc5ncn(C(C)(C)C)c5c4)c3c2)ccn1` [P-240, 1-(tert-butyl)-6-(5-((2-methoxypyridin-4-yl)ethynyl)-1H-pyrrolo[2,3-b]pyridin-3-yl)-1H-benzo[d]imidazole] had an IC50 of 0.0001 to 1 µM.

The compound `COc1cc(-c2cnc3[nH]cc(-c4ccc5ncn(C6CCCN(C(C)=O)C6)c5c4)c3n2)ccn1` (centres unmarked) [P-260, 1-[3-[6-[2-(2-methoxy-4-pyridyl)-5H-pyrrolo[2,3-b]pyrazin-7-yl]benzimidazol-1-yl]-1-piperidyl]ethanone] returned an IC50 of 0.0001 to 1 µM.

In the case of `COc1cc(C#Cc2cnc3[nH]cc(-c4ccc5ncn(C6CCCNC6)c5c4)c3c2)ccn1` (centres unmarked) [P-241, 5-[2-(2-methoxy-4-pyridyl)ethynyl]-3-[3-(3-piperidyl)benzimidazol-5-yl]-1H-pyrrolo[2,3-b]pyridine], the IC50 is 0.0001 to 1 µM.

`CC(C)(C)n1cnc2ccc(-c3c[nH]c4ncc(NC(=O)c5cccc(C#N)c5)cc34)cc21` [P-235, N-[3-(3-tert-butylbenzimidazol-5-yl)-1H-pyrrolo[2,3-b]pyridin-5-yl]-3-cyano-benzamide] returned a half-inhibitory concentration (IC50) of 0.0001 to 1 µM.

The compound `COc1cc(-c2cnc3[nH]cc(-c4ccc5ncn(C(C)(C)C)c5c4)c3n2)ccn1` [P-099, 7-(3-tert-butylbenzimidazol-5-yl)-2-(2-methoxy-4-pyridyl)-5H-pyrrolo[2,3-b]pyrazine] displayed a half-maximal inhibitory concentration (IC50) of 0.0001 to 1 µM.

The compound `COc1cnc2[nH]cc(-c3ccc4ncn(-c5cccc(Cl)c5)c4c3)c2c1` [P-105, 1-(3-chlorophenyl)-6-(5-methoxy-1H-pyrrolo[2,3-b]pyridin-3-yl)benzimidazole] showed an IC50 of 0.0001 to 1 µM.

Compound `COC(=O)N1CCCC(n2cnc3ccc(-c4c[nH]c5ncc(-c6ccnc(OC)c6)nc45)cc32)C1` (centres unmarked) [P-261, methyl 3-(6-(2-(2-methoxypyridin-4-yl)-5H-pyrrolo[2,3-b]pyrazin-7-yl)-1H-benzo[d]imidazol-1-yl)piperidine-1-carboxylate] had an IC50 of 0.0001 to 1 µM.

Take `CC(C)n1cnc2ccc(-c3c[nH]c4ncc(-c5cnn(C(F)F)c5)cc34)cc21` [P-267, 5-[1-(difluoromethyl)pyrazol-4-yl]-3-(3-isopropylbenzimidazol-5-yl)-1H-pyrrolo[2,3-b]pyridine]: the IC50 lay in the range of 0.0001 to 1 µM.

Regarding `O=C(Nc1cccc(F)c1)c1cnc2[nH]cc(-c3ccc4ncn(C5CCCNC5)c4c3)c2c1` (centres unmarked) [P-178, N-(3-fluorophenyl)-3-[3-(3-piperidyl)benzimidazol-5-yl]-1H-pyrrolo[2,3-b]pyridine-5-carboxamide], the IC50 was 0.0001 to 1 µM.

In the case of `CC(C)S(=O)(=O)Nc1cccc(-c2cnc3[nH]cc(-c4ccc5ncn(C6CCCNC6)c5c4)c3c2)c1` (centres unmarked) [P-215, N-[3-[3-[3-(3-piperidyl)benzimidazol-5-yl]-1H-pyrrolo[2,3-b]pyridin-5-yl]phenyl]propane-2-sulfonamide], the IC50 fell in the range of 0.0001 to 1 µM.

Compound `CC(C)(C)n1cnc2ccc(-c3c[nH]c4ncc(-c5cccc(N6CCCS6(=O)=O)c5)nc34)cc21` [P-231, 2-[3-[7-(3-tert-butylbenzimidazol-5-yl)-5H-pyrrolo[2,3-b]pyrazin-2-yl]phenyl]-1,2-thiazolidine 1,1-dioxide] had a concentration for half-maximal inhibition (IC50) of 0.0001 to 1 µM.

On to `COc1ncc(-c2cnc3[nH]cc(-c4ccc5ncn(C(C)C)c5c4)c3c2)cn1` [P-269, 1-isopropyl-6-[5-(2-methoxypyrimidin-5-yl)-1H-pyrrolo[2,3-b]pyridin-3-yl]benzimidazole], for which the half-maximal inhibitory concentration (IC50) was 0.0001 to 1 µM.

`COc1cc(-c2cnc3[nH]cc(-c4ccc5ncn(C(C)(C)C)c5c4)c3c2)ccn1` [P-106, 1-tert-butyl-6-[5-(2-methoxy-4-pyridyl)-1H-pyrrolo[2,3-b]pyridin-3-yl]benzimidazole] registered an IC50 of 0.0001 to 1 µM.

Compound `CC(C)(C)n1cnc2ccc(-c3c[nH]c4ncc(C#Cc5cccc(C#N)c5)cc34)cc21` [P-242, 3-[2-[3-(3-tert-butylbenzimidazol-5-yl)-1H-pyrrolo[2,3-b]pyridin-5-yl]ethynyl]benzonitrile] displayed a 50% inhibitory concentration (IC50) of 0.0001 to 1 µM.

The compound `CC(C)S(=O)(=O)Nc1cccc(-c2cnc3[nH]cc(-c4ccc5ncn(C(C)(C)C)c5c4)c3n2)c1` [P-232, N-[3-[7-(3-tert-butylbenzimidazol-5-yl)-5H-pyrrolo[2,3-b]pyrazin-2-yl]phenyl]propane-2-sulfonamide] yielded an IC50 of 0.0001 to 1 µM.

In turn, `COc1cnc2[nH]cc(-c3ccc4ncn(-c5cccc(F)c5)c4c3)c2c1` [P-128, 1-(3-fluorophenyl)-6-(5-methoxy-1H-pyrrolo[2,3-b]pyridin-3-yl)benzimidazole] had an IC50 of 0.0001 to 1 µM.

As to `C#Cc1cnc2[nH]cc(-c3ccc4ncn(C(C)(C)C)c4c3)c2c1` [P-244, 1-tert-butyl-6-(5-ethynyl-1H-pyrrolo[2,3-b]pyridin-3-yl)benzimidazole], the IC50 is 0.0001 to 1 µM.
